Read-outs that look alike come from different tables or passages of the source.
Key:
HCT116 p53^-/- = assay: Cytotoxicity MTS assay, 72 h; type: cell-based, human; conditions: for IC50: Homo sapiens, HCT-116, HCT116 p53^-/-, 72 h, MTS
Text: (§1) The human colon carcinoma cell line HCT116 wild type (p53^+/+), human breast carcinoma cell line MCF-7 and glioblastoma cell line Hs683 were obtained from ATCC. The glioma cell line U-251 was purchased from Sigma Aldrich and the normal human fibroblast cell lines NHDF from PromoCell. The human colon cancer cell line HCT116 with a p53 deletion (p53^-/-) was kindly provided by Prof. M. Rusin from the Maria Sklodowska-Curie Memorial Cancer Centre and Institute of Oncology in Gliwice, Poland. Cells were grown as monolayer cultures in Dulbecco’s modified Eagle’s medium with an antibiotic gentamicin (200 μL/100 mL medium) in 75 cm^2 flasks (Nunc). DMEM for HCT116, MCF-7, U-251, Hs683 were supplemented with 12% heat-inactivated fetal bovine serum (Sigma) and for NHDF with 15% non-inactivated fetal bovine serum (Sigma). All the cell lines were cultured under standard conditions at 37°C in a humidified atmosphere at 5% CO2.
(§2) The cells were seeded in 96-well plates (Nunc) at a density of 5,000 cells/well (HCT116, MCF-7, U-251, Hs683) and 4,000 cells/well (NHDF) and incubated at 37°C for 24 h. The assay was performed following a 72 h incubation with varying concentrations of the compounds that were tested. Then, 20 μL of The CellTiter 96®AQueous One Solution-MTS (Promega) solution was added to each well (with 100 μL DMEM without phenol red) and incubated for 1 h at 37°C. The optical densities of the samples were analyzed at 490 nm using a multi-plate reader (Synergy 4, Bio Tek). Results were expressed as a percentage of the control and calculated as the inhibitory concentration (IC50) values using GraphPad Prism 5. The IC50 parameter was defined as the compound concentration that was necessary to reduce the proliferation of cells to 50% of the untreated control. Each individual compound was tested in triplicate in a single experiment with each experiment being repeated four to five times.

Hs683 = assay: Cytotoxicity MTS assay, 72 h; type: cell-based, human; conditions: for IC50: Homo sapiens, Hs 683, Hs683, 72 h, MTS
Text: as §1, §2

MCF-7 = assay: Cytotoxicity MTS assay, 72 h; type: cell-based, human; conditions: for IC50: Homo sapiens, MCF7, MCF-7, 72 h, MTS
Text: as §1, §2

HCT116 p53^+/+ = assay: Cytotoxicity MTS assay, 72 h; type: cell-based, human; conditions: for IC50: Homo sapiens, HCT-116, HCT116 p53^+/+, 72 h, MTS
Text: as §1, §2

U-251 = assay: Cytotoxicity MTS assay, 72 h; type: cell-based, human; conditions: for IC50: Homo sapiens, U-251, 72 h, MTS
Text: as §1, §2

NHDF = assay: Cytotoxicity MTS assay, 72 h; type: cell-based; conditions: Homo sapiens, NHDF normal fibroblasts
Text: as §1, §2

cancer cell lines = assay: Cytotoxicity MTS assay, whole panel of cancer cell lines; type: cell-based; conditions: Homo sapiens, Hs 683; all the cancer lines, Hs683 an exception
Text: as §1
The cells were seeded in 96-well plates (Nunc) at a density of 5,000 cells/well (HCT116, MCF-7, U-251, Hs683) and 4,000 cells/well (NHDF) and incubated at 37°C for 24 h. […] The optical densities of the samples were analyzed at 490 nm using a multi-plate reader (Synergy 4, Bio Tek). Results were expressed as a percentage of the control and calculated as the inhibitory concentration (IC50) values using GraphPad Prism 5. […]

[1] = Protonation constants by pH-dependent UV-visible spectrophotometric titration; type: physicochemical; conditions: MeOH/H2O 80/20 by weight, I = 0.1 M KCl, T = 25.0°C
Method: Spectrophotometric titrations were performed in order to probe the acid-based equilibria that were associated with each ligand and to determine the pH range over which the chelator was in its charge neutral form. This property is important in understanding the passage of a molecule through the cell membranes, as charged chelators have poor access. These studies were performed in an 80% (w/w) MeOH/H2O solvent mixture due to the low solubility of these compounds in pure water. The fully protonated forms of the ligands have four L^1-L^7 or five L^8-L^12 dissociable protons, respectively. […] An additional proton in L^8-L^12 derives from the additional pyridine, pyrimidine or pyrazine ring, respectively; however, not all of them could be determined under these experimental conditions. The protonation constants that were obtained are given in Table 1 and the species distribution diagram of the protonated species of the selected ligand is presented in Fig 3.
To determine the acid-base properties of the studied ligands, UV-visible spectrophotometric experiments as a function of p[H] were carried out in the pH range 2–11.
UV-Visible titrations were also carried out. The absorption spectra (200–800 nm) were recorded using a Jasco V630 spectrophotometer. The initial pH of 3.2 mL ligand samples was adjusted to be acidic or basic and the titration of the solution was then carried out by adding known volumes of NaOH or HCl, respectively. The spectrophotometric data were fitted using the HypSpec program. Distribution diagrams of the species were calculated using Hyperquad Simulation and Speciation (HySS) software.

MCF-7 cells = assay: Western blot of cell cycle and cell death proteins; type: cell-based, human; conditions: 24 h, L^9 at four-fold IC50
Method: (§3) The HCT116 (p53^+/+), U-251 and MCF-7 cells were seeded in 3 cm Petri dishes (Nunc) at a density of 0.5·10^6 cells/well and incubated overnight. […] Cells were harvested by trypsinization, washed with cold PBS and cell pellets were obtained by centrifugation at 2,000 rpm. Total cell lysates were obtained by dissolving the cell pellets in 150 μL of a RIPA buffer (Thermo Scientific) containing a Halt Protease Inhibitor Cocktail (Thermo Scientific) or Halt Phosphatase Inhibitor Cocktail (Thermo Scientific) along with 0.5 M EDTA and lysed for 20 min on ice on a rocking plate. The lysates were then sonicated, centrifuged at 10,000 rpm for 10 min at 4°C and the supernatants were collected for further analysis. The protein concentration was determined using a Micro BCA™ Protein Assay Kit (Thermo Scientific) according to the manufacturer’s instructions. Equal amounts of proteins (15 μg) were electrophoresed on SDS-Page gels and transferred onto a nitrocellulose membranes. The membranes were blocked in 5% non-fat milk prepared in PBS containing 0.1% Tween-20 (TPBS) for 1 h. After blocking, the membranes were incubated with specific primary antibodies: PARP, p53, p21^Waf1/Cip1, cdc2, cyclin E, cytochrome c, caspase-3,8,9 and GAPPH overnight at 4°C, then washed and incubated with horseradish peroxidase (HRP)-conjugated secondary antibodies for 1 h at room temperature. All the antibodies were purchased from Cell Signaling and were diluted 1:1000 in 5% milk in TPBS. Finally, the membranes were washed and incubated with a SuperSignal™ West Pico Chemiluminescent Substrate (Thermo Scientific). The chemiluminescence signals were captured using a ChemiDoc™ XRS+ System (BioRad). The experiments were performed at least three times.

HCT116 p53^+/+ cells = assay: Western blot of cell cycle and cell death proteins; type: cell-based, human; conditions: 24 h, L^9 at four-fold IC50
Method: as §3

U-251 cells = assay: Western blot of cell cycle and cell death proteins; type: cell-based, human; conditions: 24 h
Method: as §3

[2] = literature value; cited from earlier work

Nc1cccnc1C=NNC(=S)N1CCN(c2ccc(Cl)cc2)CC1 [L^3, N’-[(3-aminopyridin-2-yl)methylidene]-4-(4-chlorophenyl)piperazine-1-carbothiohydrazide]
IC50 (HCT116 p53^-/-): 0.167 ± 0.018 µM | IC50 (Hs683): 1.48 ± 0.335 µM | IC50 (MCF-7): 0.204 ± 0.049 µM | IC50 (HCT116 p53^+/+): 0.12 ± 0.005 µM | IC50 (U-251): 0.128 ± 0.012 µM | IC50 (NHDF): > 25 µM | IC50 (cancer cell lines): 0.12 to 0.2 µM | melting point: 206 to 207 °C

NC(=S)NN=Cc1ncccc1N [Triapine, 3-aminopyridine-2-carboxaldehyde thiosemicarbazone]
logK1 [1]: 10.64 | logK2 [1]: 3.48 | logβ1H ([1]; error 1σ): 10.64 (1) | logβ2H ([1]; error 1σ): 14.12 (1) | cytochrome c (MCF-7 cells): release of cytochrome c | expression of cdc2 (MCF-7 cells): much stronger | expression of cyclin E (MCF-7 cells): overexpression | cytochrome c (HCT116 p53^+/+ cells): release of cytochrome c | expression of cyclin E (HCT116 p53^+/+ cells): overexpression | cytochrome c (U-251 cells; U-251): release of cytochrome c | expression of cyclin E (U-251 cells; U-251, L^9 at four-fold IC50): overexpression | PARP cleavage (U-251 cells; glioma cell (U-251)): PARP cleavage | logK1 [2]: 10.86 | logK2 [2]: 3.79 | logβ1H [2]: 10.86 (1)^[[45]^] | logβ2H [2]: 14.65 (1)^[[45]^] | Therapeutic index (TI) NHDF vs. HCT116 p53^-/- (HCT116 p53^-/-): >19 | IC50 (HCT116 p53^-/-): 1.34 ± 0.338 µM | Therapeutic index (TI) NHDF vs. Hs683 (Hs683): >14 | IC50 (Hs683): 1.76 ± 0.292 µM | Therapeutic index (TI) NHDF vs. MCF-7 (MCF-7): >11 | IC50 (MCF-7): 2.33 ± 0.431 µM | Therapeutic index (TI) NHDF vs. HCT116 p53^+/+ (HCT116 p53^+/+): >22 | IC50 (HCT116 p53^+/+): 1.12 ± 0.277 µM | Therapeutic index (TI) NHDF vs. U-251 (U-251): >17 | IC50 (U-251): 1.48 ± 0.558 µM | IC50 (NHDF): > 25 µM
